Structures can show the parent of a compound that is named as a salt.

A word on the melting point: it is the temperature of the solid-liquid transition. On to `CCCCOC(=O)NCCc1nc(-c2ccc(-c3ccc(N=C(N)c4cccs4)cc3)cc2)c[nH]1` (as salt: hydrochloride) [Example 3, butyl 2-[4-(4′-{[(1Z)-amino(thien-2-yl)methylene]amino}-1,1′-biphenyl-4-yl-1H-imidazol-2-yl]ethylcarbamate hydrochloride], for which the melting point was 97 to 98 °C.
On to `NC(=Nc1cccc(-c2c[nH]c(CNC3CCCCC3)n2)c1)c1cccs1` (as salt: hydrochloride) [Example 6, N′-(3{2-[cyclohexylamino)methyl]-1H-imidazol-4-yl}phenyl)thiophene-2-carboximidamide hydrochloride], for which the melting point is greater than 225 °C.
`N=C(Nc1cccc(-c2c[nH]c(CCC3CCCCC3)n2)c1)c1cccs1` (as salt: hydrochloride) [Example 13, N-{3[2-(2-cyclohexlethyl)-1H-imidazol-4-yl]phenyl}thiophene-2-carboximidamide hydrochloride] yielded a melting point greater than 191 °C.
As to `NC(=N[N+](=O)[O-])Nc1ccc(-c2c[nH]c(CCC3CCCCC3)n2)cc1` (as salt: hydrochloride) [Example 19, N{4-[2-(2-cyclohexylethyl)-1H-imidazol-4-yl]phenyl}N″-nitroguanidine hydrochloride], the melting point is 185 to 186 °C.
For `CCCCN(CCc1nc(-c2cccc(/N=C(/N)c3cccs3)c2)c[nH]1)C(=O)O.Cl` [Example 2, butyl-2[4(3-{[(1E)-amino(thien-2yl)methylene]-amino}phenyl)-1H-imidazol-2-yl]ethylcarbamate hydrochloride], the melting point fell in the range of 210 to 212 °C.
For the molecule `Cl.NC(=Nc1ccc(-c2c[nH]c(CCNC3CCCCC3)n2)cc1)c1cccs1` [Example 5, N′-(4-{2-[2-(cyclohexylamino)ethyl]-1H-imidazol-4-yl}phenyl)thiophene-2-carboximidamide hydrochloride], the melting point is 185 to 186 °C.
On to `CN(Cc1nc(-c2ccc(N=C(N)c3cccs3)cc2)c[nH]1)C1CCCCC1.Cl` [Example 7, N′-[4-(2-{[cyclohexyl(methyl)amino]methyl}-1H-imidazol-4-yl)phenyl]thiophene-2-carboximidamide hydrochloride], for which the melting point lay within 240 to 241 °C.
Molecule `Cl.NC(=Nc1ccc(-c2c[nH]c(CN(Cc3ccccc3)Cc3ccccc3)n2)cc1)c1cccs1` [Example 8, N′-(4{2-[(dibenzylamino)methyl]-1H-imidazol-4-yl}phenyl)thiophene-2-carboximidamide hydrochloride] returned a melting point of 150 to 151 °C.
To `Cl.NC(=Nc1ccc(-c2c[nH]c(CNCc3ccccc3)n2)cc1)c1cccs1` [Example 9, N′-(4-{2-[(benzylamino)methyl]-1H-imidazol-4-yl}phenyl)thiophene-2-carboximidamide hydrochloride] belongs 228 to 229 °C; to `Cl.NC(=Nc1cccc(-c2c[nH]c(C/N=C(/N)c3cccs3)n2)c1)c1cccs1` [Example 11, N′-{3[2-({[(1E)-amino(thien-2-yl)methylene]-amino}methyl)-1H-imidazol-4-yl]phenyl}thiophene-2-carboximidamide hydrochloride], greater than 300 °C.
To `Cl.NC(=Nc1ccc(-c2c[nH]c(C/N=C(/N)c3cccs3)n2)cc1)c1cccs1` [Example 12, N′-{4-[2-({[(1E)-amino(thien-2-yl)methylene]-amino}methyl)-1H-imidazol-4-yl]phenyl}thiophene-2-carboximidamide hydrochloride] belongs 227 to 228 °C.
For `CCCCCC(CCCCC)c1nc(-c2cccc(N=C(N)c3cccs3)c2)c[nH]1.Cl` [Example 14, N′-{3-[2(1-pentylhexyl)-1H-imidazol-4-yl]phenyl}thiophene-2-carboximidamide hydrochloride], the melting point is 163.3 °C.
Regarding `Cl.NC(=Nc1ccc(-c2c[nH]c(CCC3CCCCC3)n2)cc1)c1cccs1` [Example 15, N′-{4-[2-(2-cyclohexylethyl)-1H-imidazol-4-yl]phenyl}thiophene-2-carboximidamide hydrochloride], the melting point is 196.2 °C.
Take `Cl.NC(=Nc1cccc(-c2c[nH]c(CCCC3CCCCC3)n2)c1)c1cccs1` [Example 17, N′-{3-[2-(3-cyclohexylpropyl)-1H-imidazol-4-yl]phenyl}thiophene-2-carboximidamide hydrochloride]: the melting point is 180 to 181 °C.
`Cl.NC(=Nc1ccc(-c2c[nH]c(CNC3CCCCCC3)n2)cc1)c1cccs1` [Example 20, N′-(4-{2-[(cycloheptylamino)methyl]-1H-imidazol-4-yl}phenyl)thiophene-2-carboximidamide hydrochloride] came in with a melting point of 264 to 265 °C.
Regarding `CNCc1nc(-c2ccc(N=C(N)c3cccs3)cc2)c[nH]1.Cl` [Example 21, N′-(4-{2-[(methylamino)methyl]-1H-imidazol-4-yl}phenyl)thiophene-2-carboximidamide hydrochloride], the melting point was greater than 250 °C.
As for `Cl.NC(=Nc1ccc(-c2c[nH]c(CNC3CCC3)n2)cc1)c1cccs1` [Example 22, N′-(4-{2-[(cyclobutylamino)methyl]-1H-imidazol-4-yl}phenyl)thiophene-2-carboximidamide hydrochloride], the melting point fell in the range of 263 to 264 °C.
In turn, `Cl.NC(=Nc1ccc(-c2c[nH]c(CNCC(c3ccccc3)c3ccccc3)n2)cc1)c1cccs1` [Example 23, N′[4-(2-{[(2,2-diphenylethyl)amino]methyl}-1H-imidazol-4-yl)phenyl]thiophene-2-carboximidamide hydrochloride] returned a melting point greater than 250 °C.
Regarding `Cl.NC(=Nc1cccc(-c2c[nH]c(CC/N=C(/N)c3cccs3)n2)c1)c1cccs1` [Example 24, N′-{3-[2-(2{[(1E)-amino(thien-2-yl)methylene]amino}ethyl)-1H-imidazol-4-yl]phenyl}thiophene-2-carboximidamide hydrochloride], the melting point was greater than 245 °C.
As for `CC(C)Cc1ccc(Cc2nc(-c3cccc(N=C(N)c4cccs4)c3)c[nH]2)cc1.Cl` [Example 27, N′-{3-[2-(4-isobutylbenzyl)-1H-imidazol-4-yl]phenyl}thiophene-2-carboximidamide hydrochloride], the figure is 214 to 216 °C.

For the origin of these results see US7192975B2, “Arylimidazole derivatives, preparation and therapeutic used thereof” (Societe de Conseils de Recherches Et d''Applications …, priority 2002, dated 2007).
